The conditions of series [1]: Liquid; for mass density: 101.3 kPa; for Normal boiling temperature: Closed cell (Static) method.
Series [2] can be described thus: xn = mol fraction of the nth substance listed. The note with it: 101.3 kPa, Liquid.
Series [3] is described as follows: excess molar enthalpy (molar enthalpy of mixing); xn = mol fraction of the nth substance listed. Conditions: 318.15 K, 101.3 kPa, Liquid.

Where “and” joins values, the source holds several entries; their conditions need not be identical. Identical values can stand only once. Numbers after ± are expanded uncertainties.

For `CCCCCCCCCC` [decane], the mass density in series [1] (298.15 K) was determined as 726.2 ± 0.5 kg/m3; in series [1] (303.15 K), 722.3 ± 0.5 kg/m3; in series [1] (313.15 K), 714.7 ± 0.5 kg/m3; in series [1] (318.15 K), 710.9 ± 0.5 kg/m3. The Normal boiling temperature in series [1] was 173.8 ± 0.2 °C.
In the case of `COC(=O)OC` [dimethyl carbonate], the mass density is 1070 ± 0.6 kg/m3 in series [1] (293.15 K); 1063.5 ± 0.6 kg/m3 in series [1] (298.15 K); 1056.5 ± 0.6 kg/m3 and 1056.6 ± 0.6 kg/m3 in series [1] (303.15 K); 1043.4 ± 0.5 kg/m3 in series [1] (313.15 K); 1036.9 ± 0.5 kg/m3 in series [1] (318.15 K). Moreover, in series [1], the Normal boiling temperature is 90.31 ± 0.2 °C.
As to `COC(=O)OC` [dimethyl carbonate] + CCCCCCCCC, the mass density came to 1070 ± 0.6 kg/m3 in series [2] (293.15 K, x1 = 1); 1063.5 ± 0.6 kg/m3 in series [2] (298.15 K, x1 = 1); 1056.6 ± 0.6 kg/m3 in series [2] (303.15 K, x1 = 1); 1043.4 ± 0.5 kg/m3 in series [2] (313.15 K, x1 = 1); 1036.9 ± 0.5 kg/m3 in series [2] (318.15 K, x1 = 1). Also, the excess molar enthalpy in series [3] (x1 = 1) amounted to 0 ± 0.000478 kcal/mol.
For the molecule `COC(=O)OC` [dimethyl carbonate] + CCCCCCCCCC, the mass density in series [2] (298.15 K, x1 = 1) was 1063.5 ± 0.6 kg/m3; in series [2] (303.15 K, x1 = 1), 1056.6 ± 0.6 kg/m3; in series [2] (313.15 K, x1 = 1), 1043.4 ± 0.5 kg/m3; in series [2] (318.15 K, x1 = 1), 1036.9 ± 0.5 kg/m3. Moreover, the excess molar enthalpy in series [3] (x1 = 1) came to 0 ± 0.000478 kcal/mol.
Consider `CCCCCCC` [heptane], for which the mass density in series [1] (293.15 K) was found to be 683.6 ± 0.5 kg/m3; in series [1] (298.15 K), 679.4 ± 0.5 kg/m3; in series [1] (303.15 K), 675.3 ± 0.5 kg/m3; in series [1] (313.15 K), 666.6 ± 0.5 kg/m3; in series [1] (318.15 K), 661.5 ± 0.5 kg/m3. Further, the Normal boiling temperature in series [1] is 98.03 ± 0.2 °C.
Turning to `CCCCCCC` [heptane] + COC(=O)OC, the mass density in series [2] (293.15 K, x2 = 0) was 683.6 ± 0.5 kg/m3; in series [2] (298.15 K, x2 = 0), 679.4 ± 0.5 kg/m3; in series [2] (303.15 K, x2 = 0), 675.3 ± 0.5 kg/m3; in series [2] (313.15 K, x2 = 0), 666.6 ± 0.5 kg/m3; in series [2] (318.15 K, x2 = 0), 661.5 ± 0.5 kg/m3. The excess molar enthalpy in series [3] (x2 = 0) turned out to be 0 ± 0.000478 kcal/mol.
In the case of `CCCCCC` [hexane], the mass density in series [1] (293.15 K) worked out at 659.3 ± 0.5 kg/m3; in series [1] (298.15 K), 654.8 ± 0.5 kg/m3; in series [1] (303.15 K) it was 650.4 ± 0.5 kg/m3; in series [1] (313.15 K), 641.1 ± 0.6 kg/m3; in series [1] (318.15 K) it was 636.4 ± 0.6 kg/m3. Moreover, the Normal boiling temperature in series [1] was 68.78 ± 0.2 °C.
On to `CCCCCC` [hexane] + COC(=O)OC, for which the mass density in series [2] (293.15 K, x2 = 0) was 659.3 ± 0.5 kg/m3; in series [2] (298.15 K, x2 = 0), 654.8 ± 0.5 kg/m3; in series [2] (303.15 K, x2 = 0), 650.4 ± 0.5 kg/m3; in series [2] (313.15 K, x2 = 0) it was 641.1 ± 0.6 kg/m3; in series [2] (318.15 K, x2 = 0) it was 636.4 ± 0.6 kg/m3. Also, in series [3] (x2 = 0), the excess molar enthalpy is 0 ± 0.000478 kcal/mol.
Take `CCCCCCCCC` [nonane]: the mass density came to 717.7 ± 0.5 kg/m3 in series [1] (293.15 K); 713.9 ± 0.5 kg/m3 in series [1] (298.15 K); 710.1 ± 0.5 kg/m3 in series [1] (303.15 K); 702.2 ± 0.5 kg/m3 in series [1] (313.15 K); 698.1 ± 0.5 kg/m3 in series [1] (318.15 K). The Normal boiling temperature in series [1] was 150.51 ± 0.2 °C.
In the case of `CCCCCCCC` [octane], the mass density in series [1] (293.15 K) is 702.5 ± 0.5 kg/m3; in series [1] (298.15 K), 698.5 ± 0.5 kg/m3; in series [1] (303.15 K) it was 694.5 ± 0.5 kg/m3; in series [1] (313.15 K) it was 686.3 ± 0.5 kg/m3; in series [1] (318.15 K), 682.1 ± 0.5 kg/m3. Moreover, the Normal boiling temperature in series [1] is 125.50 ± 0.2 °C.
Turning to `CCCCCCCC` [octane] + COC(=O)OC, the mass density was found to be 702.5 ± 0.5 kg/m3 in series [2] (293.15 K, x2 = 0); 698.5 ± 0.5 kg/m3 in series [2] (298.15 K, x2 = 0); 694.5 ± 0.5 kg/m3 in series [2] (303.15 K, x2 = 0); 686.3 ± 0.5 kg/m3 in series [2] (313.15 K, x2 = 0); 682.1 ± 0.5 kg/m3 in series [2] (318.15 K, x2 = 0). Moreover, the excess molar enthalpy in series [3] (x2 = 0) was 0 ± 0.000478 kcal/mol.
